Assay results published in publication PMC12221116, “Novel Quinazolinones Active against Multidrug‐Resistant Mycobacterium Tuberculosis: Synthesis, Antimicrobial Evaluation, and in Silico Exploration of Penicillin‐Binding Protein 1A as a Potential Target” (Chemmedchem, 2025).
Values after ≈ are worked out from the molar mass of the structure shown. Values joined by “and” are separate entries in the source; they are usually repeats but may differ in a detail not shown here. Identical values can stand only once. Like-named read-outs stand apart in the source and are kept apart here.

Columns and labels:
Protein RecA = tested on: Protein RecA; set-up: method as in ChEMBL; settings: target CHEMBL1741171; ref ChEMBL; cited from earlier work
Replicative DNA helicase = target: Replicative DNA helicase; set-up: method as in ChEMBL; settings: target CHEMBL1741192; ref ChEMBL; cited from earlier work
[1] = tested on: Mycobacterium tuberculosis; settings: target CHEMBL360; ref ChEMBL; cited from earlier work
Mtb H37Rv = assay: Microplate Alamar Blue assay, MIC; format: cell-based, Mycobacterium tuberculosis; settings: Mycobacterium tuberculosis, H37RV
Mtb H37Ra = assay: Microdilution broth resazurin assay, MIC; format: cell-based, Mycobacterium tuberculosis; settings: for MIC: Mycobacterium tuberculosis, H37RA
M. kansasii = assay: Microplate Alamar Blue assay, MIC; format: cell-based, Mycobacterium kansasii; settings: Mycobacterium kansasii; read-out: Antimycobacterial Activity MIC M. kans.
M. avium = assay: Microdilution broth resazurin assay, MIC; format: cell-based, Mycobacterium avium
M. smegmatis = assay: Microdilution broth resazurin assay, MIC; format: cell-based, Mycolicibacterium smegmatis
M. aurum = assay: Microdilution broth resazurin assay, MIC; format: cell-based, Mycolicibacterium aurum
MDR Mtb H37Rv = assay: microbe, parasite or virus in culture; format: cell-based; settings: Mycobacterium tuberculosis, read-out: MIC MDR Mtb H37Rv
Bacteria, incl. SA = assay: Antibacterial microdilution screening (eight strains); format: cell-based; settings: read after 24 and 48 h, highest tested concentration 500 μM
Fungi = assay: Antifungal microdilution screening (eight strains); format: cell-based; settings: read after 24 and 48 h (72 and 120 h for TI), highest tested concentration 500 μM
HepG2 = assay: cells; settings: Homo sapiens
MRC-5 = assay: cells; settings: Homo sapiens

O=c1c2ccccc2nc(/C=C/c2cccnc2)n1CCc1ccccc1 [CHEMBL1366795]
EC50 (Protein RecA): 12 µM

O=c1c2ccccc2nc(/C=C/c2cccnc2)n1Cc1ccccc1 [CHEMBL1567670]
AC50 (Replicative DNA helicase): 13.6 µM and 9.29 µM | EC50 (Protein RecA): 9.92 µM

Cc1nc2ccc(-c3ccccc3)cc2c(=O)n1-c1ccccc1 [CHEMBL4442905]
MIC Mycobacterium tuberculosis [1]: > 64 µg/mL

C#CCNc1ccc2c(=O)n(-c3ccccc3)c(C)nc2c1 [CHEMBL4444032]
MIC Mycobacterium tuberculosis [1]: 4 µg/mL (≈ 13.8 µM)

COc1ccc(Cn2c(C)nc3cc(Cl)ccc3c2=O)cc1 [Compound 17]
MIC (Mtb H37Rv; Microplate Alamar Blue assay, read-out: Antimycobacterial Activity MIC Mtb H37Rv): 12.5 µg/mL | MIC (Mtb H37Rv; calculated from the measured MIC in mass concentration units, read-out: MIC Mtb H37Rv): 40 µM | MIC (Mtb H37Rv; read-out: Antimycobacterial Activity MIC Mtb H37Rv, Table S5 matching pairs series A and B): > 100 µg/mL | Antimycobacterial Activity MIC Mtb H37Ra (Mtb H37Ra): 7.81 µg/mL | MIC (Mtb H37Ra; read-out: Antimycobacterial Activity MIC Mtb H37Ra): 7.81 µg/mL | MIC (Mtb H37Ra; calculated from the measured MIC in mass concentration units, read-out: MIC Mtb H37Ra): 25 µM | MIC (M. kansasii): > 100 µg/mL | MIC (M. avium; Mycobacterium avium, read-out: Antimycobacterial Activity MIC M. avium): ≥ 500 µg/mL | Antimycobacterial Activity MIC M. avium (M. avium; Table S5 matching pairs series A and B): ≥ 500 µg/mL | Antimycobacterial Activity MIC M. smeg. (M. smegmatis): 31.25 µg/mL | MIC (M. smegmatis; Mycolicibacterium smegmatis, read-out: Antimycobacterial Activity MIC M. smeg.): 31.2 µg/mL (≈ 99.3 µM) | Antimycobacterial Activity MIC M. aurum (M. aurum): 15.625 µg/mL | MIC (M. aurum; Mycolicibacterium aurum, read-out: Antimycobacterial Activity MIC M. aurum): 15.6 µg/mL (≈ 49.6 µM) | MIC (MDR Mtb H37Rv): 40 µM (≈ 12.6 µg/mL) | MIC Bacteria, incl. SA (Bacteria, incl. SA): inactive | MIC Fungi (Fungi): inactive | IC50 (HepG2; HepG2, 24 h, read-out: IC50 for HepG2 [24 h]): > 50 µM | IC50 (HepG2; HepG2, 72 h, read-out: IC50 for HepG2 [72 h]): > 50 µM | IC50 (MRC-5; MRC5, 24 h, read-out: IC50 for MRC-5 [24 h]): > 100 µM | IC50 (MRC-5; MRC5, 72 h, read-out: IC50 for MRC-5 [72 h]): > 100 µM
